According to patent US10787416B1, “Crystals of intermediate for benzindene prostaglandins and methods for preparation thereof” (CHIROGATE INTERNATIONAL INC., priority 2020, dated 2020):

Legend:
[1] = Storage stability of the crystalline forms at room temperature; format: physicochemical; conditions: room temperature for six months
[2] = Crystalline form conversion by grinding; format: physicochemical; conditions: grinding at room temperature for about 10 minutes

Compound	stability (other crystalline forms or degraded products of impurities) [1]	crystalline form transformation on grinding [2]
CCCCC[C@H](O)CC[C@@H]1[C@H]2Cc3cccc(OCC#N)c3C[C@H]2C[C@H]1O [Form I, 2-(((1R,2R,3aS,9aS)-2-hydroxy-1-((S)-3-hydroxyoctyl)-2,3,3a,4,9,9a-hexahydro-1H-cyclopenta[b]naphthalen-5-yl)oxy)acetonitrile]	no other crystalline forms or degraded products of impurities	
CCCCC[C@H](O)CC[C@@H]1[C@H]2Cc3cccc(OCC#N)c3C[C@H]2C[C@H]1O [Form II, 2-(((1R,2R,3aS,9aS)-2-hydroxy-1-((S)-3-hydroxyoctyl)-2,3,3a,4,9,9a-hexahydro-1H-cyclopenta[b]naphthalen-5-yl)oxy)acetonitrile]		convert to Form I crystal
